Where “and” joins values, the source holds several entries; their conditions need not be identical. Equal entries are not always repeated. Where two headings read alike, the source gives them in different places.
Legend:
[1] = Allometric extrapolation of population pharmacokinetic parameters to humans; settings: for half-life: human; for half-life / clearance / Vd: plasma, intravenous; for Vd: read-out: Vss
Description: (§1) An analysis was performed to derive allometric equations for Formula I pharmacokinetic parameters using Formula I plasma concentration-time data from three species, including mouse, rat, and monkey, and to estimate human pharmacokinetic parameters from those allometric equations.
(§2) Plasma concentrations of Formula I were obtained from mice, rats, and monkeys following intravenous injection or continuous infusion. Formula I pharmacokinetic parameters in mice, rats, and monkeys were estimated using population pharmacokinetic analysis, a function of the software program NONMEM™ (version 5). Typical population pharmacokinetic parameters for Formula I in humans were extrapolated from allometric equations that were derived from pharmacokinetic parameters estimated in the three animal species.
Allometric equations for the pharmacokinetic parameters clearance (CL), volume of distribution (V1 and V2), and inter-compartmental clearance (Q) were derived. The population PK parameters of the compound of Formula I for humans were extrapolated from the allometric equations, and the estimated values are shown in Table 6. Simulated Formula I plasma concentration-time profiles in humans are shown in Figure 13 and estimated end of infusion concentrations are provided in Table 7.

[2] = Pharmacokinetics of 14-day continuous intravenous infusion in monkeys; type: in vivo, Cynomolgus monkeys; settings: for Css / mean steady-state plasma concentration / T½z: 14-day CIV; for Css: average between 30h and 14 days; for Css / T½z: mean; for mean steady-state plasma concentration: between 30 h and 14 days; for T½z: calculated at the end of treatment; for plasma concentration: CIV 30 mg/kg/day
Description: Cynomolgus monkeys received continuous IV infusion over 14 days of Formula I at 5 mg/kg/day, 15 mg/kg/day, or 30 mg/kg/day. The drug was infused intravenously (24 hours/day) into the femoral vein at a dose rate of 2 ml/kg/hour for 14 consecutive days. Blood samples were removed from each monkey on Days 1, 2, 6, 10, and 15 of the treatment period. Monkeys were bled by venipuncture and samples were collected into tubes containing K2EDTA. On Day 1, samples were collected at 2, 6, and 12 hours after initiation of treatment. Additional samples were collected at 30 hours after the start of infusion (Day 2). On Days 6 and 10, samples were collected at approximately 6 hours after the bag changes. At the end of the 14 days of infusion, on Day 15, samples were collected at 1 hour prior to cessation of dose administration, and at 5 min, 30 min, 1 h, 2 h, 4 h, 8 h, and 24 h following cessation of dose administration.

[3] = Population pharmacokinetic analysis (NONMEM), rat; type: in vivo; settings: Rat (IV+CIV)
Description: as §1, §2
A two-compartment model with a first-order elimination from the central compartment adequately described Formula I plasma concentration-time profiles following intravenous bolus injection (30 mg/kg) in mice and rats, 7-day continuous infusion in rats (50 to 170 mg/kg/day), and 14-day continuous infusion in monkeys (5 to 30 mg/kg/day).

[4] = tested on: P388 murine leukemia cells; assay: Murine P388 leukemia survival model; type: in vivo
Description: Formulation: The compound of Formula I is first dissolved in 1 volume of 90% propylene glycol (PG). This is followed by the addition of 2 volumes of 45% polyethylene glycol 400 (PEG 400). The volume ratio of PEG 400/PG/water is respectively 30:30:40. Compound is injected in a volume of 10 mL/kg.
DBA/2 female mice (6 weeks of age) were injected intraperitoneally (IP) with 1 x 10^6 P388 murine leukemia cells (day 0). Mice were randomized in 4 groups (10 mice per group) at Day 1 and treated with the following dose and schedule. Group 1: IV injection of vehicle (PEG/PG formulation) on D1 and D8, daily IP administration of vehicle from D2 to D7 and from D9 to D10 Group 2: IV injection of the compound of Formula I in PEG-PG formulation at 50 mg/kg on D1 followed by daily IP administration of the compound of Formula I in PEG-PG formulation at 10 mg/kg from D2 to D4 and from D6 to D12 Group 3: Daily IP administration of the compound of Formula I in PEG-PG formulation at 10 mg/kg from D1 to D4 and from D8 to D14
Mice body weights were recorded twice a week. Lethality and behaviour of animals were recorded every day. All vehicle control mice died between D8 to D10 from peritoneal carcinomatosis associated with ascites. Three (3) mice from group 2 died one day after treatment due to formulation toxicity. The remaining seven (7) died between days 8 and 12. Mice from group 3 died between days 8 and 12. The results are expressed as percent of mean survival time of treated animals over the mean survival time of the control group (treated vs control, T/C%) and as increase life span (mean survival time of treated animals minus that of control animals over the mean survival time of the control group; ILS%).

[5] = Human, WT 70 Kg, estimated from allometric equations
[6] = Human, estimated from allometric equations derived from mouse, rat and monkey
[7] = typical population PK parameter
[8] = Grp 2: IV 50 mg/kg (D1), IP 10 mg/kg (D2-4 & D6-12)
[9] = Grp 3: IP 10 mg/kg (D1-4 & D8-14)

SMILES: CC(C)=CCC/C(C)=C/CC/C(C)=C/CN1C(=O)c2cccc(O)c2Nc2c(O)cc(O)cc21 [Formula I, 10-farnesyl-4,6,8-trihydroxy-dibenzodiazepin-11-one]
- Q [1, 5]: 2.27 L/h
- V1 [1, 5]: 13.9 L
- V2 [1, 5]: 39.2 L
- Ke [1, 6]: 1.192 h⁻¹
- Q [1, 6]: 0.533 mL/min/kg
- V1 [1, 6]: 0.198 L/kg
- V2 [1, 6]: 0.559 L/kg
- half-life ([1]; estimated from allometric equations derived from mouse, rat and monkey, read-out: t1/2,α (converted)): 0.509 h
- half-life ([1]; estimated from allometric equations derived from mouse, rat and monkey, read-out: t1/2,β (converted)): 13.8 h
- clearance [1, 5]: 275 mL/min
- Vd [1, 5]: 53.1 L
- clearance [1, 6]: 3.93 mL/min/kg
- Vd [1, 6]: 0.757 L/kg
- AUC increase between the groups ([2]; 15 mg/kg/day group versus 5 mg/kg/day group): 3.4 fold
- AUC higher than that of the middle dose group ([2]; 30 mg/kg/day group versus 15 mg/kg/day group): 4.7 fold
- Css ([2]; 5 mg/kg/day): 358 ng/mL and 358 ^b ng/mL
- mean steady-state plasma concentration ([2]; 5 mg/kg/day): ~0.8 µM
- T½z ([2]; 5 mg/kg/day): 12 h
- Css ([2]; 15 mg/kg/day): 1,173 ng/mL
- mean steady-state plasma concentration ([2]; 15 mg/kg/day): ~2.5 µM
- T½z ([2]; 15 mg/kg/day): 8.3 h
- Css ([2]; 30 mg/kg/day): 6,283 ng/mL
- T½z ([2]; 30 mg/kg/day): 8.1 h
- plasma concentration ([2]; Day 1): 2,814 ng/mL
- plasma concentration ([2]; Day 6): 4,354 ng/mL
- plasma concentration ([2]; Day 10): 6,855 ng/mL
- plasma concentration ([2]; day 15): 8,561 ng/mL
- Q ([3]; WT 0.225 Kg): 0.016 L/h
- V1 ([3]; WT 0.225 Kg): 0.028 L
- V2 ([3]; WT 0.225 Kg): 0.053 L
- Ke [3, 7]: 8.651 h⁻¹
- Q [3, 7]: 1.16 mL/min/kg
- V1 [3, 7]: 0.126 L/kg
- V2 [3, 7]: 0.236 L/kg
- % ILS [4, 8]: 33%
- %T/C [4, 8]: 133.3%
- Mean Survival Days ± SD [4, 8]: 11 ± 1.5 days
- Median survival [4, 8]: 12
- % ILS [4, 9]: 38.9%
- %T/C [4, 9]: 138.9%
- Mean Survival Days ± SD [4, 9]: 12.6 ± 4.9 days
- Median survival [4, 9]: 12.5
- mice died one day after treatment due to formulation toxicity ([4]; group 2 (10 mice), IV 50 mg/kg in PEG-PG formulation on D1): 3 mice
